Reference: the supplement of paper PMC5908809

Tests used:
[1] = tested on: normal NK cells expanded with K562-aAPC; assay: drug sensitivity score (DSS) (DSS units); higher = more sensitive; extreme values may be limits of the assay; details: 72 h; IL-2 2.5 ng/mL
Method: (§1)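 Drug sensitivity and resistance testing on K562-aAPC-expanded normal NK cells: 5 concentrations (10-fold steps over a 10,000-fold range), 72 h at 37 °C, viability by CellTiter-Glo normalised to DMSO and benzethonium chloride controls; DSS from the fitted curve.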

[2] = tested on: normal primary NK cells, pool 1 (3 donors), resting (IL-2 0 ng/mL); assay: percent inhibition of viability; higher = more inhibition; details: 72 h
DERL-7 (IL-2 2.5 ng/mL) [3] = assay: as above; details: 72 h
[4] = tested on: normal primary NK cells, pool 3 (3 donors) (IL-2 2.5 ng/mL); assay: as above; details: 72 h
[5] = tested on: normal primary NK cells, pool 2 (3 donors) (IL-2 2.5 ng/mL); assay: as above; details: 72 h
NKL (IL-2 2.5 ng/mL) [6] = assay: as above; details: 72 h
KHYG-1 (IL-2 2.5 ng/mL) [7] = assay: as above; details: 72 h
[8] = tested on: normal primary NK cells, pool 1 (3 donors) (IL-2 2.5 ng/mL); assay: as above; details: 72 h
IMC-1 (IL-2 20 ng/mL) [9] = assay: as above; details: 72 h
YT (IL-2 2.5 ng/mL) [10] = assay: as above; details: 72 h
SNK-6 (IL-2 2.5 ng/mL) [11] = assay: as above; details: 72 h
NK-YS (IL-2 2.5 ng/mL) [12] = assay: as above; details: 72 h
KAI3 (IL-2 2.5 ng/mL) [13] = assay: as above; details: 72 h
NK-92 (IL-2 2.5 ng/mL) [14] = assay: as above; details: 72 h
[15] = tested on: normal primary NK cells, pool 1 (3 donors), resting (IL-2 0 ng/mL); assay: drug sensitivity score (DSS) (DSS units); higher = more sensitive; extreme values may be limits of the assay; details: 72 h
DERL-7 (IL-2 2.5 ng/mL) [16] = assay: as above; details: 72 h
[17] = tested on: normal primary NK cells, pool 3 (3 donors) (IL-2 2.5 ng/mL); assay: as above; details: 72 h
[18] = tested on: normal primary NK cells, pool 2 (3 donors) (IL-2 2.5 ng/mL); assay: as above; details: 72 h
NKL (IL-2 2.5 ng/mL) [19] = assay: as above; details: 72 h
KHYG-1 (IL-2 2.5 ng/mL) [20] = assay: as above; details: 72 h
[21] = tested on: normal primary NK cells, pool 1 (3 donors) (IL-2 2.5 ng/mL); assay: as above; details: 72 h
IMC-1 (IL-2 20 ng/mL) [22] = assay: as above; details: 72 h
YT (IL-2 2.5 ng/mL) [23] = assay: as above; details: 72 h
SNK-6 (IL-2 2.5 ng/mL) [24] = assay: as above; details: 72 h
NK-YS (IL-2 2.5 ng/mL) [25] = assay: as above; details: 72 h
KAI3 (IL-2 2.5 ng/mL) [26] = assay: as above; details: 72 h
NK-92 (IL-2 2.5 ng/mL) [27] = assay: as above; details: 72 h
[28] = tested on: normal NK cells expanded with K562-aAPC; assay: percent inhibition of viability; higher = more inhibition; details: 72 h, IL-2 2.5 ng/mL
Method: as §1

O=C(Nc1cccc(Nc2ncc(Br)c(NCCc3cnc[nH]3)n2)c1)N1CCCC1 [BX-912] (max concentration tested 10000 nM)
Details	drug sensitivity score
DERL-7 (IL-2 2.5 ng/mL) [16]	11.4
IMC-1 (IL-2 20 ng/mL) [22]	13.3
KAI3 (IL-2 2.5 ng/mL) [26]	13.7
KHYG-1 (IL-2 2.5 ng/mL) [20]	14.9
NK-92 (IL-2 2.5 ng/mL) [27]	8.1
NK-YS (IL-2 2.5 ng/mL) [25]	5.99
NKL (IL-2 2.5 ng/mL) [19]	9.05
SNK-6 (IL-2 2.5 ng/mL) [24]	13.4
YT (IL-2 2.5 ng/mL) [23]	8.82
[1]	9.08
[15]	2.21
[17]	5.85
[18]	7.7
[21]	7.12

percent inhibition of viability [%]
Details	1 nM	10 nM	100 nM	1000 nM	10000 nM
DERL-7 (IL-2 2.5 ng/mL) [3]	2.87	-0.14	-7.54	46.5	100
IMC-1 (IL-2 20 ng/mL) [9]	-2.34	-6.68	1.1	67.4	100
KAI3 (IL-2 2.5 ng/mL) [13]	4.7	2.59	15.4	62.1	91.9
KHYG-1 (IL-2 2.5 ng/mL) [7]	2.7	1.66	7.53	73.7	99.5
NK-92 (IL-2 2.5 ng/mL) [14]	-9.43	-1.33	-2.11	29.9	73.8
NK-YS (IL-2 2.5 ng/mL) [12]	-1.46	-2.48	3.48	12.5	71
NKL (IL-2 2.5 ng/mL) [6]	-14.9	-11.4	13.4	37.6	82.2
SNK-6 (IL-2 2.5 ng/mL) [11]	-3.93	-10.2	-7.12	74.4	84.7
YT (IL-2 2.5 ng/mL) [10]	5.65	4	10.3	27.9	94
[2]	-5.56	-0.72	-0.67	-4.14	48.2
[4]	-2.12	3.72	-4.74	17.4	59.6
[5]	-15	-8.59	-3.23	28.3	70.2
[8]	-2.38	3.58	-5.48	24.1	67.8
[28]	6.59	2.98	3.43	27.4	91.5

O=C(Nc1ccc(OC(F)(F)F)cc1)c1sccc1NCc1ccnc2ccccc12 [OSI-930] (max concentration tested 2500 nM)
Details	drug sensitivity score
DERL-7 (IL-2 2.5 ng/mL) [16]	0.66
IMC-1 (IL-2 20 ng/mL) [22]	0.67
KAI3 (IL-2 2.5 ng/mL) [26]	0
KHYG-1 (IL-2 2.5 ng/mL) [20]	0
NK-92 (IL-2 2.5 ng/mL) [27]	1.27
NK-YS (IL-2 2.5 ng/mL) [25]	0
NKL (IL-2 2.5 ng/mL) [19]	0
SNK-6 (IL-2 2.5 ng/mL) [24]	8.62
YT (IL-2 2.5 ng/mL) [23]	0
[1]	0
[15]	0.24
[17]	0
[18]	0
[21]	0

percent inhibition of viability [%]
Details	0.25 nM	2.5 nM	25 nM	250 nM	2500 nM
DERL-7 (IL-2 2.5 ng/mL) [3]	-3.26	4.29	2.35	12.1	10.2
IMC-1 (IL-2 20 ng/mL) [9]	0.84	-1.87	4.98	6.89	18.2
KAI3 (IL-2 2.5 ng/mL) [13]	3.63	-6.37	-2.54	-7.75	4.42
KHYG-1 (IL-2 2.5 ng/mL) [7]	0.6	1.74	3.75	5.69	7.1
NK-92 (IL-2 2.5 ng/mL) [14]	3.89	-3.38	-8.56	11.8	16.6
NK-YS (IL-2 2.5 ng/mL) [12]	-1.68	-3.28	-0.75	3.05	10.1
NKL (IL-2 2.5 ng/mL) [6]	-6.01	-14.6	-5.82	-10.2	7.79
SNK-6 (IL-2 2.5 ng/mL) [11]	2.35	8.65	27.3	16.9	25.4
YT (IL-2 2.5 ng/mL) [10]	-0.61	-3.29	0.94	1	10.3
[2]	-4.47	-4.58	-9.07	4.32	12.1
[4]	-8.79	-12.1	-5.29	4.46	8.54
[5]	-8.8	-7.72	0	7.78	8.04
[8]	-1.64	6.46	-0.65	1.58	5.43
[28]	0.01	-3.72	-1.42	0.82	7.54
